pEC50: −log10 of the molar value.

One test relates to PC-3 cells. As to the kind of experiment: Cell invasion assay, PC-3 cells through Matrigel. The test is classed as cell-based. As to conditions: Homo sapiens, 72 hours. As for the experimental part:
Experimental procedure. […] Inserts were stored at −20° C. […] The remaining media was aspirated. […] Inserts were allowed to dry. Fixed invaded cells were calculated under the microscope. Invasion % was calculated as a comparison to the control.

Test [1] addresses T1, CHO cells expressing α2β1 integrin (Homo sapiens, UniProt P05556+P17301).
T1 sequence (P17301 1-1181): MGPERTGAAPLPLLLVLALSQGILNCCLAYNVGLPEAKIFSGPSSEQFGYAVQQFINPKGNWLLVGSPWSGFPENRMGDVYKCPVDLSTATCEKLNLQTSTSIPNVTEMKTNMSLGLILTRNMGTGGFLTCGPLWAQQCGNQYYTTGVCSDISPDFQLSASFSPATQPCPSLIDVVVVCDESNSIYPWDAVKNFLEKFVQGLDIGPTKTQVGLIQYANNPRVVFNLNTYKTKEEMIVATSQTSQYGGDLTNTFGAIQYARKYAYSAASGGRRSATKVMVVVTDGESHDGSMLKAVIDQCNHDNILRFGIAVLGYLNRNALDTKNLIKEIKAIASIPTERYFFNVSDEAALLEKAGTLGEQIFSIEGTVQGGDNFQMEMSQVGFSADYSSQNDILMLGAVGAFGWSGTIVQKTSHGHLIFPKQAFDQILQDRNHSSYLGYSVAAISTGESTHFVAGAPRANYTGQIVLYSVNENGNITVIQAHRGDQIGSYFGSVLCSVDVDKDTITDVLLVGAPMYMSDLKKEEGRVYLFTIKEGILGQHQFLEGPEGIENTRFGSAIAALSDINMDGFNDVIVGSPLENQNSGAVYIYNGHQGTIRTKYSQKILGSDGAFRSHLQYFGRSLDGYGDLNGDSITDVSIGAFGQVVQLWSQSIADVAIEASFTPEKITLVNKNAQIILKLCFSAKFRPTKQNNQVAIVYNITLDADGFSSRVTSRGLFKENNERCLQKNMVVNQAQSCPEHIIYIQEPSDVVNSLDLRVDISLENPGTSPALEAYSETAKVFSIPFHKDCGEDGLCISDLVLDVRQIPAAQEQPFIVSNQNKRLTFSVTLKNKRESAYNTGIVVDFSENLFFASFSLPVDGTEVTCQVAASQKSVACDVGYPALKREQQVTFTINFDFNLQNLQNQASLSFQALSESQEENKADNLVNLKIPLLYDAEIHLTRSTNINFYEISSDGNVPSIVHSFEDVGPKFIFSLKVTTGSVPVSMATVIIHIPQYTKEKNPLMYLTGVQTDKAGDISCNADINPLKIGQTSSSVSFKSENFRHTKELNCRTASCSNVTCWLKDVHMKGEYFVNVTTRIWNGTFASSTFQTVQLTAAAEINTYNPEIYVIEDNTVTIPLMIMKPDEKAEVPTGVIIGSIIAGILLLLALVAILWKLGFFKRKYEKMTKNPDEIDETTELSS
Description: Cell adhesion assay, CHO-α2 cells on collagen type I. The test is classed as cell-based, Chinese Hamster. As for the experimental part:
Chinese Hamster Ovary (CHO) cell clone expressing wild type α2 integrin was used in cell adhesion assay. Cells were suspended in serum free medium containing 0.1 mg/ml cycloheximide (Sigma) and the compounds were preincubated with the cells prior to transfer to the wells. Cells (150000/well) were allowed to attach on collagen type I coated wells (in the presence and absence of inhibitor compounds) for 2 h at +37° C. and after that non-adherent cells were removed. Fresh serum free medium was added and the living cells were detected using a cell viability kit (Roche) according to the manufacturers protocol.
For this purpose CHO cells were transfected to express α2β1 integrin on their surface as their only collagen receptor.

For the compound `O=S(=O)(Nc1ccc(C(O)c2ccccc2)cc1)c1cccc(-c2ccc(F)cc2)c1` (stereo not drawn) [Compound 452], the negative logarithm of the EC50 (pEC50) in the test with PC-3 cells is 6.10; in test [1] (CHO-α2 cells, collagen type I, read-out: EC50, adhesion) it was 5.03. Further, the inhibition at 50 µM in test [1] (CHO) came to 83%.

The values above are taken from patent US20090286713A9, “Collagen Receptor I-Domain Binding Modulators” (Biotie Therapies Corporation, priority 2005, published 2009).
